The values that follow come from patent publication US20170165293A1, “METHOD AND APPARATUS FOR SCAVENGING PLASMA FREE HEMOGLOBIN” (GENO LLC, priority 2015, published 2017).

One series deals with LPS-induced lung injury. Type of series: in vivo, mice.
For series [1], the system named is polymicrobial sepsis-induced lung injury. To be noted: in vivo.
The subject of series [2] is brain ischemia-reperfusion injury. Particulars: acute rat model, focal ischemia-reperfusion, inhaled; cited from earlier work.
For the next series, the system named is chrondrocytes. Particulars: cited from earlier work.
In another series the target is cell-free Hb (Homo sapiens, UniProt P68871+P69905). Particulars: cited from earlier work.
A further series deals with NO. Particulars: cited from earlier work; for NO consumption ability of plasma compared to controls with infused albumin and saline: samples collected after infusion, both p<0.0001.
For series [3] the following is noted: several time points; cited from earlier work.
Another series relates to canines. Particulars: cited from earlier work; for mean SVRI compared to controls (albumin and saline) / mean MAP compared to controls (albumin and saline): 1-3 hr, after 1-hour infusion; for mean SVRI compared to controls (albumin and saline): oxyHb p<0.0001, metHb p=0.04; for mean MAP compared to controls (albumin and saline): oxyHb p<0.0001, metHb p=0.05.
The test system of series [4] is free water-induced intravascular hemolysis. To be noted: in vivo; cited from earlier work.
The subject of another series is HIF. To be noted: cited from earlier work.

Like-named read-outs stand apart in the source and are kept apart here.

Sequence of cell-free Hb (P69905 2-142 limits assumed): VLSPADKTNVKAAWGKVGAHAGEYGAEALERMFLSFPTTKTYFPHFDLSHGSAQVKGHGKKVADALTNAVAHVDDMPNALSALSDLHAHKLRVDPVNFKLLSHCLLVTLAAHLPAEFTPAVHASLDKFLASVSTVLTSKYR
Sequence of cell-free Hb (P68871 2-147 limits assumed): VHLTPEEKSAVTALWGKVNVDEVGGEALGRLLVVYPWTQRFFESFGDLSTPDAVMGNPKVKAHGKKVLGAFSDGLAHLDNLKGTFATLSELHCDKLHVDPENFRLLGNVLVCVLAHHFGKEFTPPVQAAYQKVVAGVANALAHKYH

As for `[HH]` [H2, hydrogen], in the series with LPS-induced lung injury (H2 and/or NO treatment), the “LPS-induced pulmonary early and late NF-κB activation” value is recorded as “inhibited”; the cell apoptosis entry is “down-regulated”; the pulmonary inflammation entry is reported as “down-regulated”. Further, the lung injury entry with LPS-induced lung injury (intratracheal LPS, 2% H2 and/or 20 ppm NO for 3 hours starting at 5 minutes or 3 hours after LPS) was “significantly improved”. Further, the “lung injury in polymicrobial sepsis” value in series [1] is given as “significantly attenuated”. Further, the brain injury entry in series [2] is “markedly suppressed”. In addition, in the series with chrondrocytes, the “generation of hydroxyl radicals and peroxynitrite” value is “selectively reduce”.

Consider “cell-free Hb: cell-free hemoglobin infused with or without inhaled NO”, for which the “species of the cell-free Hb” value with cell-free Hb (animals breathing air (n=2)) was “remained predominantly oxyhemoglobin”. Besides, in the series with cell-free Hb (infusion of cell-free Hb), the SVRI entry is listed as “increases” and the “pulmonary vascular resistance index” value is “increases”.

As for “metHb: cell-free ferric methemoglobin (Fe3+) infused into animals”, in the series with NO (p=0.009), the “NO consumption by plasma relative to the infused oxyHb-containing plasma” value was 10 fold lower. Besides, the “NO consumption ability of plasma compared to controls with infused albumin and saline” value in the series on NO is listed as “Elevated”. In addition, the “mean plasma nitrite levels compared to controls” value in series [3] is “similar”. Further, in the series with canines, the “mean SVRI compared to controls (albumin and saline)” value is on record as “elevations”; the “mean MAP compared to controls (albumin and saline)” value was “elevations”. In the series on canines (cell-free metHb infusions, after being reduced to oxyHb), the vascular pressures result was “increase”. Besides, in the series with canines (in vivo), the “clearance / stability in plasma compared with cell-free oxyHb” value is recorded as “cleared faster and/or is less stable”. Moreover, the “increase in MAP compared to the oxyHb infusions” value in the series with canines (similar concentrations of Hb solutions over 1 hour, p=0.006) is reported as “significantly less of an increase”. The “increase in SVRI compared to the oxyHb infusions” value with canines (similar concentrations of Hb solutions over 1 hour, p=0.04) is on record as “significantly less of an increase”. Also, the “correlation of metHb levels converted from infused oxyHb with changes in MAP” value with canines (throughout the experiment) was “not correlated”.

Consider nitric oxide [inhaled NO], for which, in the series with LPS-induced lung injury (mouse, in vivo), the “LPS-induced pulmonary early and late NF-κB activation” value was “inhibited”; the cell apoptosis entry is “down-regulated”; the lung injury result is “significantly improved”; the pulmonary inflammation result is on record as “down-regulated”. Besides, the “lung injury in polymicrobial sepsis” value in [1] is “significantly attenuated”. Further, in [4], the MAP entry is “no net effect”, the SVRI result is given as “no net effect”, the “effect of sodium nitroprusside on CI during hemolysis” value is recorded as “restored” and the “effect of sodium nitroprusside on SVRI during hemolysis” value is “restored”. In series [4], the “hypertensive effects associated with intravascular free water induced hemolysis and release of cell-free oxyHb” value was “completely eliminates”; the “impairment in the ability of the kidneys to compensate for hyponatremia (serum sodium levels)” value is listed as “attenuated”; the “increase in MAP caused by free water-induced intravascular hemolysis” value is “attenuated”; the “increase in SVRI caused by free water-induced intravascular hemolysis” value is “attenuated”. Moreover, in [4], the six-hour creatinine clearance result is given as “intermediate clearance”, the systemic blood pressure result is reported as “miniscule or no measurable effects”, the “total plasma Hb composition” value was “predominantly methemoglobin” and the vasoconstriction result is reported as “prevent vasoconstriction”. For the same compound, at cell-free Hb (animals breathing NO (n=2)), the “increase in SVRI on infusion of cell-free Hb” value was “attenuated”, the “increase in pulmonary vascular resistance index on infusion of cell-free Hb” value is given as “attenuated” and the “species of the cell-free Hb” value was “converted to methemoglobin”. In the series on HIF (high doses and after 30 minutes), the “effect on HIF” value is reported as “inhibitory”. The “effect on HIF” value with HIF (low dose, for 30 minutes, during hypoxia) is listed as “stimulates”.

For “oxyHb: cell-free oxyhemoglobin (Fe2+-O2) infused into animals”, the “increase in NO consumption ability of plasma, ranking” value in the series on NO (among infused groups) is reported as “highest”. The “NO consumption ability of plasma compared to controls with infused albumin and saline” value in the series with NO was “Elevated”. In addition, in series [3], the “mean plasma nitrite levels compared to controls” value is “similar”. For the same compound, in the series with canines, the “mean SVRI compared to controls (albumin and saline)” value is “significant elevations”; the “mean MAP compared to controls (albumin and saline)” value was “significant elevations”. Moreover, the MAP result in the series with canines (2 hours after the oxyHb infusion ended, same rate as during the infusion) is reported as “continued to steadily increase”. Also, the “increase in MAP” value with canines (oxyHb infusion, from 0 to 3 hr, p<0.0001) is 27%.
